How the values were obtained:
Assay type in all cases: cell-based
HIV (HTLV-IIIB) = experiment: Effect on HIV in H9 cells (frequency of HIV antigen containing cells, immunofluorescence); details: Human immunodeficiency virus 1; H9 cells exposed to HIV (HTLV-IIIB), incubated 6 - 7 days; read-out: Concentration (µM) for 50 % inhibition (IC₅₀) of human immuno deficiency virus multiplication in cell culture
Protocol: Test I. Effect of compounds of the formula I on HIV in H9 cells
Materials and methods: HIV infection of H9 cells
H9 cells, 10⁵ cells per well on a 24 well plate, suspended in 2 ml RPMI-medium containing 10 % fetal calf serum, 100 µg/ml penicillin, 10 µg/ml streptomycin sulfate and 2 µg/ml polybrene are exposed to HIV (HTLV-IIIB) and different concentrations of the test compounds. The plates are incubated at 37°C in 5 % CO₂ for 6 - 7 days. The contents in each well is then homogenized with a pipette and transferred to a centrifuge tube. After centrifugation for 10 min at 1500 rpm the supernatent is removed and the cell pellet is analyzed by fixing in methanol on glass plates. Human HIV positive serum diluted 1:80 or 1:160 is added and incubated for 30 min at 37°. The plate is then washed with phosphate-buffered saline (PBS) containing Ca²⁺ and Mg²⁺. Sheep antihuman conjugate (FITC) is added and after a new incubation the plate is again washed with PBS. Contrast staining is done with Evans blue and after drying the frequency of HIV antigen containing cells is determined in a microscope.

[1] = Cellular toxicity in F5000 cells (cell multiplication); details: F5000 human embryo cells, number of cells after 48 hrs; 50 % inhibition of cell multiplication; read-out: TC₅₀(µM) F5000
Protocol: (§1) Test II. Cellular toxicity
(§2) F5000 cells, which are human embryo cells, 1x10⁵ cells per plate, are incubated in Eagle's minimal essential medium, supplemented with Earle's salts, non-essential amino acids, 10 % fetal calf serum, 10 mM hepes, 70 mg/l penicillin and 100 mg/l streptomycin, in absence or presence of test compounds. The number of cells per plate is determined after 48 hrs. Cells incubated in absence of test compounds underwent one cell division cycle. The results are given as TC₅₀, which is the concentration of a compound which gives 50 % inhibition of cell multiplication.

[2] = Cellular toxicity in H9 cells (cell multiplication); details: human, number of cells after 48 hrs, 50 % inhibition of cell multiplication, read-out: TC₅₀(µM) H9
Protocol: as §1
H₉ cells, 2x10⁷ cells per plate, are incubated in RPMI-1640 medium containing 10 % fetal calf serum, 70 mg/l penicillin, 100 mg/l streptomycin and 10 mM hepes, in absence or precence of test compounds. The number of cells per plate is determined after 48 hrs. Cells incubated in absence of test compound then underwent two cell division cycles.
as §2

Row | IC50 (HIV (HTLV-IIIB)) [µM] | Structure (SMILES) | CC50 at 48 h [1] [µM] | CC50 at 48 h [2] [µM]
1 | 10 | CCc1cn([C@@H]2C[C@H](O)[C@@H](CO)O2)c(=O)[nH]c1=O [VIP 289, 1-(2-deoxy-α-D-ribofuranosyl)-5-ethyluracil] | 1000 | –
2 | 2.5 | CCCc1cn([C@@H]2C[C@H](F)[C@@H](CO)O2)c(=O)[nH]c1=O [VSA 409, 1-(3-F-2,3-dideoxy-α-D-ribofuranosyl)-5-propyluracil] | – | –
3 | 0.1 | CCc1cn([C@@H]2C[C@H](F)[C@@H](CO)O2)c(=O)[nH]c1=O [VSA 411, 1-(3-F-2,3-dideoxy-α-D-ribofuranosyl)-5-ethyluracil] | 500 | 400
4 | – | Cc1cn([C@@H]2C[C@H](F)[C@@H](CO)O2)c(=O)[nH]c1=O [VSA 419, 1-(3-F-2,3-dideoxy-α-D-ribofuranosyl)thymine] | 250 | –

From patent EP0516186A2, “Nucleosides and nucleoside analogues, pharmaceutical composition and processes for the preparation of the compounds” (priority 1987, dated 1988)
